Measured values taken from the CheMixHub ionic liquid set.

Test: xn = mol fraction of the nth substance listed

CCCCCCCC/C=C\CCCCCCCC(=O)O + CC[N+](CC)(CC)CC.[Cl-]
100 kPa, x2 = 0.25
Details	viscosity [mPa·s]
293.1 K	268.5
313.2 K	95.4
323.2 K	61.9

CN1CCCC1=O + CCCCCCCCn1cc[n+](C)c1.N#C[S-]
101 kPa, x2 = 0
Details	viscosity [mPa·s]
288.15 K	2.127
298.15 K	1.785
308.15 K	1.543
318.15 K	1.306

CCCC[n+]1ccn(C)c1.F[P-](F)(F)(F)(F)F + CN(C)C=O
101 kPa
Details	viscosity [mPa·s]
293.15 K, x2 = 0.3999	39.7
303.15 K, x2 = 0	187.6
303.15 K, x2 = 0.7963	2.42
303.15 K, x2 = 0.9399	1.21
308.15 K, x2 = 0.3002	30.91
308.15 K, x2 = 0.6	7.89
308.15 K, x2 = 0.7	4.71
313.15 K, x2 = 0.8543	1.7
318.15 K, x2 = 0	95.8
318.15 K, x2 = 0.2	31.22
318.15 K, x2 = 0.6	6.16
323.15 K, x2 = 0.4909	8.38
323.15 K, x2 = 0.6262	4.46

CC(CC(C)(C)C)CP(=O)([O-])CC(C)CC(C)(C)C.CCCCCCCCCCCCCC[P+](CCCCCC)(CCCCCC)CCCCCC + CCC(=O)O + O
298.15 K, 100 kPa
Details	viscosity [mPa·s]
x2 = 0.02049, x1 = 0.1002	133
x2 = 0.02069, x1 = 0.09762	145
x2 = 0.04451, x1 = 0.115	139
x2 = 0.231, x1 = 0.1669	147
x2 = 0.3019, x1 = 0.1781	150
x2 = 0.3925, x1 = 0.1645	145
x2 = 0.4515, x1 = 0.1697	133
x2 = 0.4652, x1 = 0.1675	127
x2 = 0.4969, x1 = 0.154	133
x2 = 0.5235, x1 = 0.1181	81
x2 = 0.5255, x1 = 0.1239	85
x2 = 0.5271, x1 = 0.1398	114
x2 = 0.5377, x1 = 0.108	60
x2 = 0.571, x1 = 0.09705	52

CC#N + Cn1cc[n+](CCCN)c1.F[B-](F)(F)F
101 kPa, x2 = 0
Details	viscosity [mPa·s]
288.15 K	0.439
293.15 K	0.403
298.15 K	0.371
303.15 K	0.345
308.15 K	0.322
313.15 K	0.3
318.15 K	0.282
323.15 K	0.265

CN1CCCC1=O + CCCCCC[n+]1ccn(C)c1.N#C[S-]
101 kPa, x2 = 0
Details	viscosity [mPa·s]
288.15 K	2.133
298.15 K	1.791
308.15 K	1.548
318.15 K	1.312

CCCC[n+]1ccn(C)c1.O=S(=O)([N-]S(=O)(=O)C(F)(F)F)C(F)(F)F + CC(=O)[O-].CCCC[n+]1ccn(C)c1
101 kPa
Details	electrical conductivity, 313.15 K [S/m]	viscosity, 298.15 K [mPa·s]	viscosity, 313.15 K [mPa·s]	viscosity, 353.15 K [mPa·s]
x1 = 1	0.683	–	28.5	–
x2 = 0	–	50.3	–	9.52
